Consider one molecule from US5312831A, “Urethanes and ureas that induce cytokine production” (American Cyanamid Company, priority 1993, dated 1994).

In this test the test system is GCSF. The test is described as follows: Serum GCSF production in mice (NFS-60 bioassay). In kind it is in vivo, mouse. As to conditions: for GCSF: 4 hours, 10 mice/group. The method, then:
Description of Biological Assays Interleukin 6(IL-6) assay for structure function analysis--Test compounds are dissolved in water and administered subcutaneously in 0.2 ml to deliver a dose of 0.1-10 mg/kg. The less soluble compounds are first dissolved in 100% ethanol and then brought to the appropriate concentration in water. Four hours post injection, the mice are bled and the serum is retrieved. The IL-6 dependent cell line 7TDl is used to assay serial dilutions of sera for IL-6 content. 7TDl cells (1×10^4) are placed in microtiter wells and incubated at 37° C. for 72 hours with standard recombinant mouse IL-6 or with dilutions of serum to be tested. Over the last 6 hours, the cells are pulsed with ^3 H-Tdr (μci). Cells are then harvested and the degree of proliferation determined by the uptake of ^3 H-Tdr as measured by liquid scintillation spectrometry. The concentration of IL-6 in serum is calculated from standard curves utilizing recombinant IL-6 from R&D Systems Inc. and are reported in units of IL-6 activity as defined by the manufacturer.
Granulocyte colony stimulating factor (GCSF) assay--A bioassay for GCSF is performed in an identical fashion to the IL-6 assay except that the GCSF dependent cell line NFS-60 is used in place of the IL-6 dependent 7TDI cell line.
Mice (10/group) are given a single subcutaneous injection of test compoun
and bled 4 hours later. GCSF levels in serum are determined by bioassay
using the GCSF dependent cell line NFS60.

In the case of `CCCCCCC(=O)N[C@@H](C(=O)O)[C@@H](C)OC(=O)N[C@@H](CCC[C@@H](N)C(=O)O)C(=O)N[C@H](C)C(=O)O` [Example 28, [R-(R*,R*)]-N-(R)-6-carboxy-N^2-[[2-carboxy-1-methyl-2-[(1-oxoheptyl)amino]ethoxy]carbonyl]-L-lysyl]-D-Alanine], the GCSF is, setting by setting: (1.56 μg/kg single s.c.) 442 ± 52 pg/mL; (3.12 μg/kg single s.c.) 470 ± 59 pg/mL; (6.25 μg/kg single s.c.) 644 ± 267 pg/mL; (12.50 μg/kg single s.c.) 1342 ± 289 pg/mL; (25.00 μg/kg single s.c.) 3352 ± 907 pg/mL; (50.00 μg/kg single s.c.) 1249 ± 138 pg/mL. For the same molecule, under “injected mice”, the “GCSF induction in the serum of mice (in words)” value was “induce GCSF in the serum of injected mice”.
